{"source": "paper PMC4449006", "about": "“Targeting KRAS Oncogene in Colon Cancer Cells with 7-Carboxylate Indolo[3,2-b]quinoline Tri-Alkylamine Derivatives” (PLoS ONE, 2015)", "key": {"[1]": {"system": "SW620 cells", "assay": "MTS short-term cytotoxicity assay (72 h), SW620", "assay_type": "cell-based", "method": "(§1) The short-term effect of compounds at 72 h on cell growth was studied using colorectal carcinoma cell lines with different KRAS and TP53 genotypes: human colorectal carcinoma HCT116 (mut Kras, wild-type (wt) p53), and human metastatic colorectal adenocarcinoma SW620 (mut Kras, mut p53). In parallel, we also used the immortalized human embryonic kidney cell line HEK293T (wt Kras, wt p53) and normal human colon fibroblast cells CCD18co (wt Kras, wt p53).\n(§2) SW620 human colorectal adenocarcinoma cells (European Collection of Cell Cultures, ECACC, Porton Down, Wiltshire, UK), HEK293T human embryonic kidney cells (ATCC, LGC Standards, UK) HCT116 human colon carcinoma cells (ECACC), HCT116 p53(+/+) and p53(−/−) isogenic human colon cancer cells (GRCF Cell Center and Biorepository, the Johns Hopkins University, School of Medicine, Baltimore, MD, USA), were grown in Dulbecco’s modified Eagle’s medium (DMEM) supplemented with 10% fetal bovine serum, and 1% antibiotic/antimycotic (Invitrogen, Grand Island, NY, USA), CCD18co human colon fibroblasts (ATCC, CRL-1459) were grown in Minimum Essential Medium (MEM) supplemented with 10% fetal bovine serum, 1% antibiotic/antimycotic, 2 mM GlutaMAX, 0,1 mM Non-essential amino acids (NEAA) (Invitrogen) and […] Recombinant Human TNF-α (Peprotech, USA) and maintained at 37°C in a humidified atmosphere of 5% CO2.\n(§3) Cell viability was evaluated by the tetrazolium dye (MTS) Short-Term Cytotoxicity Assay. […] Following 72 h of compound exposure, cell viability was evaluated using the CellTiter 96 AQueous Non-Radioactive Cell Proliferation Assay (Promega, Madison, WI, USA), using 3-(4,5-dimethylthiazol-2-yl)-5-(3-carboxymethoxyphenyl)-2-(4-sulfophenyl)-2H-tetrazolium, inner salt (MTS) as previously described [35]. Cell viability data were expressed as mean ±SD from at least three independent experiments. IC50 and IC65 values were determined using GaphPad Prism v.5.00 (GraphPad Software). In selected experiments, cell viability was also assessed by trypan blue exclusion assay, and general cell death by LDH activity from cell culture supernatants."}, "[2]": {"system": "HCT116 cells", "assay": "MTS short-term cytotoxicity assay (72 h), HCT116", "assay_type": "cell-based, human", "method": "as §1, §2, §3"}, "[3]": {"system": "T-Loop duplex DNA", "assay": "FRET melting assay, duplex DNA", "assay_type": "binding", "settings": "1 μM compound; standard deviation < 0.2°C", "method": "(§4) The capacity of compounds 1a-d, 2a-d and the standard G4 ligand TMPyP4 (Fig 1) to bind and stabilize KRAS [26] and HSP90A [27] G4 DNA structures as well as duplex DNA (T-loop) was evaluated by a Fluorescence Resonance Energy Transfer (FRET) melting assay. […] It was observed that the basicity of side chains correlates positively with thermal G4 stabilization of all DNA sequences up to an optimal pKa ~ 8.0–9.0 (Fig 2). Heterocyclic amines at the end of alkyl side chain (1b and 2b) appear to improve binding to G4s and complex stabilization compared to the di-ethylamine group (1a and 2a), which cannot be explained by differences in basicity between terminal groups. […] However, this was not observed for the isomeric pair 1a / 2a.\n(§5) All oligonucleotides were purchased from Eurofins MWG Synthesis GmbH, Germany. The labeled oligonucleotides used in the FRET assays had attached the donor fluorophore FAM (6-carboxyfluorescein) and the acceptor fluorophore TAMRA (6-carboxytetramethylrhodamine): KRAS21R (5’-FAM-[…]-TAMRA-3’); HSP90A (5’- [FAM]-[…]-[TAMRA]-3’); T-Loop (5’-FAM-[…]-TAMRA-3’). Each oligonucleotide was initially diluted to a storage solution at 100 μM in nuclease free water (not DEPC-treated), purchased from Ambion Applied Biosystems UK.\n(§6) The ability of IQ3A and TMPyP4 to stabilize G-quadruplex and duplex DNA sequences was investigated using a Fluorescence Resonance Energy Transfer (FRET) assay. Stock solution of the oligonucleotides sequences at 20 μM and subsequent dilutions were obtained from storage solutions diluting with K-cacodylate buffer pH = 7.4, containing 60 mM K^+ (10 mM potassium cacodylate, 50 mM KCl). The FRET probe sequences were diluted from stock to the correct concentration (0.4 μM) and then annealed by heating to 95°C for 10 min, followed by cooling to RT. Test compounds were prepared as 1 mM in 10% DMSO and 10% 1mM HCl in HPLC-grade water. The rest of the dilutions were performed using FRET buffer. Annealed DNA (50 μL) and compound solution (50 μL) were distributed across 96-well RT-PCR plates (BioRad; MJ Research, Waltham, MA, USA). Relevant controls were also performed to check for interference with the assay. Fluorescence readings were made on a DNA Engine Opticon (MJ Research) with excitation at 450–495 nm and detection at 515–545 nm, taken at intervals of 0.5°C in the range 30–100°C, with a constant temperature being maintained for 30 s prior to each reading to ensure a stable value. Experiments were performed in triplicate. Final analysis of the data was carried out with GraphPad Prism 5.0 software (GraphPad Software, Inc). The advanced curve-fitting function in GraphPad Prism was used for calculation of ΔT m values and associated standard deviations."}, "[4]": {"system": "HEK293T cells", "assay": "MTS short-term cytotoxicity assay (72 h), HEK293T", "assay_type": "cell-based, human", "method": "as §1, §2, §3"}, "[5]": {"system": "KRAS mRNA", "assay": "KRAS mRNA steady-state levels by Taqman Real-time RT-PCR", "settings": "HCT116, 72 h, equitoxic concentration"}, "[6]": {"system": "KRAS protein", "assay": "KRAS protein steady-state expression by immunoblot", "settings": "HCT116, 72 h, equitoxic (IC50) concentration"}, "[7]": {"system": "CCD18co cells", "assay": "MTS short-term cytotoxicity assay (72 h), CCD18co", "assay_type": "cell-based", "settings": "Homo sapiens, CCD-18Co, read-out: CCD18co IC50", "method": "as §1, §2, §3"}, "[8]": {"system": "KRAS gene promoter", "assay": "KRAS promoter activity Dual-Luciferase reporter assay", "assay_type": "cell-based, human", "settings": "HCT116 and SW620 cells, PGL-Ras0.5, 24 h, IC50 concentrations", "text": "To validate that the mechanism of anti-proliferative activity and apoptotic induction by IQ3A compounds involves repression of KRAS gene expression as a result of the stabilization of G4-forming sequences present in the promoter, the effects of compounds on the KRAS gene promoter were directly evaluated by a luciferase reporter assay. For this purpose, we used two different size promoter constructs containing the G4 region of the KRAS gene promoter, cloned into the pGL3 Basic backbone: pGL-Ras0.5, pGL-Ras2.0, and pGL3 Basic empty (Firefly Luciferase negative control/no promoter), co-transfected together with pRL-TK (transfection efficiency normalization) into HEK293T cells, as a G4 negative control.\nKRAS promotor luciferase reporters respectively harbor 500 bp and 2000 bp of the human KRAS promotor region, kindly provided by Prof. Kim Nam-Soon. pGL3 Basic empty was used as negative control, and pRL-TK simultaneously for transfection efficiency normalization and as a G4 negative control. […] Finally, 72 h after compound incubation, cells were lysed and firefly and renilla luciferase activities were measured using Dual-Luciferase Reporter Assay System (Promega). […] Twenty-four h later, cells were lysed and renilla luciferase activities were measured and expressed as above. The results are expressed as the mean ± SEM fold-change compared to DMSO exposure, from three independent experiments."}, "[9]": {"system": "KRAS21 G-quadruplex DNA", "assay": "FRET melting assay, KRAS G-quadruplex DNA", "assay_type": "binding", "settings": "1 μM compound; standard deviation < 0.2°C", "method": "as §4, §5, §6"}, "[10]": {"settings": "72 h, MTS, standard errors ≤ 0.1"}}, "data": [{"smiles": "C[n+]1ccc(-c2c3nc(c(-c4cc[n+](C)cc4)c4ccc([nH]4)c(-c4cc[n+](C)cc4)c4ccc([nH]4)c(-c4cc[n+](C)cc4)c4nc2C=C4)C=C3)cc1", "note": "[TMPyP4, reference compound]", "values": [{"measurement": "SW620 IC65", "setting": "[1]; [10]", "result": "> 20", "unit": "µM"}, {"measurement": "IC50", "setting": "[1]; Homo sapiens, SW-620, 72 h, read-out: SW620 IC50", "result": "> 20", "unit": "µM"}, {"measurement": "HCT116 IC65", "setting": "[2]; [10]", "result": 14.21, "unit": "µM"}, {"measurement": "Selective index (SI) = IC50 CCD-18co / IC50 HCT116", "setting": "[2]; CCD18co vs HCT116", "result": 3.08}, {"measurement": "IC50", "setting": "[2]; Homo sapiens, HCT-116, 72 h, read-out: HCT116 IC50", "result": 12.4, "unit": "µM"}, {"measurement": "ΔTm (°C) T-Loop 1 μM", "setting": "[3]", "result": 16, "unit": "°C"}, {"measurement": "IC50", "setting": "[4]; Homo sapiens, HEK-293T, read-out: HEK293T IC50", "result": 2.97, "unit": "µM"}, {"measurement": "HEK293T IC65", "setting": "[4]; MTS, standard errors ≤ 0.1", "result": 4.11, "unit": "µM"}, {"measurement": "reduction of KRAS mRNA steady-state levels", "setting": "[5]", "result": "unable to reduce KRAS mRNA steady-state levels"}, {"measurement": "decrease of KRAS protein steady-state levels", "setting": "[6]", "result": "~80", "unit": "%"}, {"measurement": "IC50", "setting": "[7]", "result": 38.2, "unit": "µM"}, {"measurement": "reduction of KRAS promoter activity", "setting": "[8]", "result": "significantly reduce KRAS promoter activity"}, {"measurement": "ΔTm (°C) KRAS21 1 μM", "setting": "[9]", "result": 25, "unit": "°C"}]}]}
